Assay results as given in ChEMBL document CHEMBL5365466, “Discovery of Triazolyl Derivatives of Cucurbitacin B Targeting IGF2BP1 against Non-Small Cell Lung Cancer” (J Med Chem, 2023).
Calls of active or inactive are those of the source. The rule behind the calls is not given here.

Columns and labels:
A549 [1] = assay: Induction of apoptosis in human A549 cells assessed as downregulation of CDK4 expression incubated for 48 hrs by Western blotting analysis; type: functional, cell-based
BXPC-3 = assay: Antiproliferative activity against human BXPC-3 cells assessed as cell growth inhibition incubated for 72 hrs by SRB assay; type: functional, cell-based; conditions: BXPC-3, 72 h
[2] = Selectivity index, ratio of IC50 for antiproliferative activity against human L02 cells to IC50 for antiproliferative activity against human A549 cells; type: toxicity, cell-based; conditions: L02 cells versus A549 cells, read-out: Ratio IC50
PANC-1 = assay: Antiproliferative activity against human PANC-1 cells assessed as cell growth inhibition incubated for 72 hrs by SRB assay; type: functional, cell-based; conditions: PANC-1, 72 h
MDA-MB-231 = assay: Antiproliferative activity against human MDA-MB-231 cells assessed as cell growth inhibition incubated for 72 hrs by SRB assay; type: functional, cell-based; conditions: MDA-MB-231, 72 h
[3] = target: T1, Insulin-like growth factor 2 mRNA-binding protein 1 (Homo sapiens, UniProt Q9NZI8); assay: Binding affinity to IGF2BP1 in human A549 cells assessed as protein stabilization at 1 uM at 55 degreeC incubated for 2 hrs by CETSA; type: cell-based
T1 sequence (Q9NZI8 whole entry): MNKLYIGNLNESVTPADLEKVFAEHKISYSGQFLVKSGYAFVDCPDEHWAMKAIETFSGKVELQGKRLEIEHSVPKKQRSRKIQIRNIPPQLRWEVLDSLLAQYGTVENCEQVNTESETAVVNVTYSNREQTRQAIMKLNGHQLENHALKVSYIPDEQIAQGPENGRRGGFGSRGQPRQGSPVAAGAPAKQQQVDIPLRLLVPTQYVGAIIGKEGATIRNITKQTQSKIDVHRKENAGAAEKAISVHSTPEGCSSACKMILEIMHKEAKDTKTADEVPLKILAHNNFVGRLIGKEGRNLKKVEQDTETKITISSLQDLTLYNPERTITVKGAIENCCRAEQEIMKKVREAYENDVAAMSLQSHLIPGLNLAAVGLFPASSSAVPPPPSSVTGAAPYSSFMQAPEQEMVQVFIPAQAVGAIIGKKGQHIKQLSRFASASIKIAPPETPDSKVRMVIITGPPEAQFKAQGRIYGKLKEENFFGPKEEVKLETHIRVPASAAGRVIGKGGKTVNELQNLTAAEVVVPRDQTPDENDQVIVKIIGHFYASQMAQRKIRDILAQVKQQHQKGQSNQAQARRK

CFPAC-1 = assay: Antiproliferative activity against human CFPAC-1 cells assessed as cell growth inhibition incubated for 72 hrs by SRB assay; type: functional, cell-based; conditions: CFPAC-1, 72 h
A549 [4] = assay: Antiproliferative activity against human A549 cells assessed as cell growth inhibition incubated for 72 hrs by SRB assay; type: functional, cell-based; conditions: A549, 72 h
A549 [5] = assay: Antiproliferative activity against wild type human A549 cells assessed as cell growth inhibition incubated for 72 hrs by SRB assay; type: functional, cell-based; conditions: A549, 72 h
A549 [6] = assay: Antiproliferative activity against human A549 cells with IGF2BP1 knockdown assessed as cell growth inhibition incubated for 72 hrs by SRB assay; type: functional, cell-based; conditions: A549, 72 h
A549 [7] = assay: Antitumor activity against human A549 cells xenografted in BALB/c mouse assessed as decrease in tumor volume at 0.5 mg/kg,ip administrated for 21 days; type: functional, organism-based; conditions: time 21.0 day
A549 [8] = assay: Induction of cell cycle arrest in human A549 cells assessed as accumulation of cells at G2 phase at 0.5 uM incubated for 24 hrs by PI staining based flow cytometric analysis (reference value: 9.26 %); type: functional
[9] = Acute toxicity in BALB/c mouse xenografted with human A549 cells assessed as change in body weight at 0.5 mg/kg,ip administrated for 21 days; type: organism-based; conditions: in vivo, 504 h, time 21 day
[10] = target: T1, Insulin-like growth factor 2 mRNA-binding protein 1; assay: Binding affinity to IGF2BP1 in human A549 cells assessed as protein stabilization at 1 uM at 46 degreeC incubated for 2 hrs by CETSA; type: cell-based
[11] = Selectivity index, ratio of IC50 for antiproliferative activity against human L02 cells to IC50 for antiproliferative activity against human HepG2 cells; type: toxicity, cell-based; conditions: L02 cells versus HepG2 cells, read-out: Ratio IC50
A549 [12] = assay: Antitumor activity against human A549 cells xenografted in BALB/c mouse assessed as increase in nuclear pyknosis at 0.5 mg/kg,ip administrated for 21 days by hematoxylin and eosin staining based microscopic analysis; type: functional, organism-based; conditions: time 21.0 day
MCF7 = assay: Antiproliferative activity against human MCF7 cells assessed as cell growth inhibition incubated for 72 hrs by SRB assay; type: functional, cell-based; conditions: MCF7, 72 h
[13] = target: T1, Insulin-like growth factor 2 mRNA-binding protein 1; assay: Binding affinity to IGF2BP1 in human A549 cells assessed as protein stabilization at 1 uM at 52 degreeC incubated for 2 hrs by CETSA; type: cell-based
[14] = Selectivity index, ratio of IC50 for antiproliferative activity against human L02 cells to IC50 for antiproliferative activity against human SK-OV-3 cells
[15] = Acute toxicity in C57BL/6J mouse assessed as death at 0.75 mg/kg,ip measured after 14 days; type: organism-based; conditions: in vivo, 336 h, time 14 day
SK-OV-3 = assay: Antiproliferative activity against human SK-OV-3 cells assessed as cell growth inhibition incubated for 72 hrs by SRB assay; type: functional, cell-based; conditions: SK-OV-3, 72 h
A549 [16] = assay: Induction of apoptosis in human A549 cells assessed as downregulation of BCL-2 expression incubated for 48 hrs by Western blotting analysis; type: functional, cell-based
[17] = Selectivity index, ratio of IC50 for antiproliferative activity against human L02 cells to IC50 for antiproliferative activity against human MCF7 cells; type: toxicity, cell-based; conditions: L02 cells versus MCF7 cells, read-out: Ratio IC50
A549 [18] = assay: Antitumor activity against human A549 cells xenografted in BALB/c mouse assessed as tumor growth inhibition at 0.5 mg/kg,ip administrated for 21 days; type: functional; conditions: A549, 504 h, time 21 day, read-out: TGI
A549 [19] = assay: Induction of cell cycle arrest in human A549 cells assessed as accumulation of cells at S phase at 0.1 uM incubated for 24 hrs by PI staining based flow cytometric analysis (reference value: 23 %); type: functional
[20] = target: T1, Insulin-like growth factor 2 mRNA-binding protein 1; assay: Binding affinity to human recombinant IGF2BP1 assessed as dissociation constant by microscale thermophoresis analysis
A549 [21] = assay: Induction of apoptosis in human A549 cells assessed as increase in PARP cleavage incubated for 48 hrs by Western blotting analysis; type: functional, cell-based
[22] = Selectivity index, ratio of IC50 for antiproliferative activity against human L02 cells to IC50 for antiproliferative activity against human CFPAC-1 cells
[23] = Antiproliferative activity against human L02 cells assessed as cell growth inhibition at 1 uM incubated for 72 hrs by SRB assay; type: toxicity, cell-based
A549 [24] = assay: Antitumor activity against human A549 cells xenografted in BALB/c mouse assessed as increase in apoptosis at 0.5 mg/kg,ip administrated for 21 days by TUNEL staining based analysis; type: functional, organism-based; conditions: time 21.0 day
A549 [25] = assay: Antitumor activity against human A549 cells xenografted in BALB/c mouse assessed as reduction in Ki67 expression in tumor at 0.5 mg/kg,ip administrated for 21 days by immunohistochemical analysis; type: functional, organism-based; conditions: time 21.0 day
A549 [26] = assay: Induction of cell cycle arrest in human A549 cells assessed as accumulation of cells at G1 phase at 0.5 uM incubated for 24 hrs by PI staining based flow cytometric analysis (reference value: 65.6 %); type: functional
A549 [27] = assay: Induction of autophagy in human A549 cells assessed as upregulation of LC3II/LC3I ratio at 0.1 to 0.5 uM incubated for 48 hrs by Western blotting analysis; type: functional, cell-based; conditions: dose 0.1-0.5 µM
HCT-116 [28] = assay: Antiproliferative activity against human HCT-116 cells assessed as cell growth inhibition at 1 uM incubated for 72 hrs by SRB assay; type: functional
[29] = Antiproliferative activity against human L02 cells assessed as cell growth inhibition at 0.1 uM incubated for 72 hrs by SRB assay; type: toxicity, cell-based
HCT-116 [30] = assay: Antiproliferative activity against human HCT-116 cells assessed as cell growth inhibition incubated for 72 hrs by SRB assay; type: functional, cell-based; conditions: HCT-116, 72 h
A549 [31] = assay: Induction of apoptosis in human A549 cells assessed as downregulation of BCL-xl expression incubated for 48 hrs by Western blotting analysis; type: functional, cell-based
A549 [32] = assay: Induction of cell cycle arrest in human A549 cells assessed as accumulation of cells at G2 phase at 0.1 uM incubated for 24 hrs by PI staining based flow cytometric analysis (reference value: 9.26 %); type: functional

CC(=O)OC(C)(C)/C=C/C(=O)[C@](C)(O)[C@H]1[C@H](O)C[C@@]2(C)[C@@H]3CC=C4[C@@H](C[C@H](OC(=O)Cn5ncn(-c6ccc(F)cc6)c5=O)C(=O)C4(C)C)[C@]3(C)C(=O)C[C@]12C
Activity (A549 [1]): Dose-Dependent Effect | IC50 (BXPC-3): 18 nM | selectivity ratio [2]: 11.1 | IC50 (PANC-1): 88 nM | IC50 (MDA-MB-231): 49 nM | Activity [3]: Active | IC50 (CFPAC-1): 37 nM | IC50 (A549 [4]): 9 nM | IC50 (A549 [5]): 5 nM | IC50 (A549 [6]): 92 nM | Activity (A549 [7]): Active | Activity (A549 [8]): 37.3% | Activity [9]: Non-Toxic | Activity [10]: Active | selectivity ratio [11]: 1.25 | Activity (A549 [12]): Active | IC50 (MCF7): 56 nM | Activity [13]: Active | Ratio IC50 [14]: 1.85 | Activity [15]: Non-Toxic | IC50 (SK-OV-3): 54 nM | Activity (A549 [16]): Dose-Dependent Effect | selectivity ratio [17]: 1.79 | inhibition in vivo at 0.5 mg/kg (A549 [18]): 80% | Activity (A549 [19]): 31.1% | Kd [20]: 10.9 nM | Activity (A549 [21]): Dose-Dependent Effect | Ratio IC50 [22]: 2.7 | inhibition at 72 h, 1 µM [23]: 68.9% | Activity (A549 [24]): Active | Activity (A549 [25]): Active | Activity (A549 [26]): 51.3% | Activity (A549 [27]): Active | inhibition at 1 µM (HCT-116 [28]): 84.1% | inhibition at 72 h, 0.1 µM [29]: 50.5% | IC50 (HCT-116 [30]): 34 nM | Activity (A549 [31]): Dose-Dependent Effect | Activity (A549 [32]): 10.5%
